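All cell lines were grown in 96-well plates and treated with compound for 48 hours. Here, GI50 denotes the concentration required for 50% inhibition of growth. The concentration for full growth arrest is given as TGI.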

Among the test systems are HCT-15 colon; KM12 colon; OVCAR-3 ovarian; OVCAR-5 ovarian; SF-539 CNS; SK-OV-3 ovarian; UO-31 renal; A498 renal; HCC-2998 colon.
Common to all, as to experiment: inhibition of tumour cell growth, NCI panel, 48 h

In the case of `COc1cc(C(C#N)NNC(=O)c2ccccc2O)ccc1O` (stereo unspecified), the TGI with HCT-15 colon is > 100 µM; in the experiment on KM12 colon it was > 100 µM; with OVCAR-3 ovarian it was 48.5 µM; in the experiment on OVCAR-5 ovarian, > 100 µM; in the experiment with SF-539 CNS, 8.73 µM; with SK-OV-3 ovarian, > 100 µM. In addition, in the experiment with UO-31 renal, the TGI is 3.28 µM.

As for `CCCN(CCCCC(NC(C)=O)C(=O)NCc1ccccc1)C(=O)NC` (stereo unspecified), the TGI in the experiment with A498 renal, in the experiment on HCC-2998 colon, in the experiment with HCT-15 colon, in the experiment with KM12 colon, in the experiment on OVCAR-3 ovarian and in the experiment on OVCAR-5 ovarian was > 100 µM throughout. Also, the TGI in the experiment with SF-539 CNS, with SK-OV-3 ovarian and in the experiment with UO-31 renal was > 100 µM throughout.

As for `c1cc2c(cnc3cscc32)s1`, the TGI with A498 renal, in the experiment on HCC-2998 colon, with HCT-15 colon, with KM12 colon, with OVCAR-3 ovarian and in the experiment with OVCAR-5 ovarian was > 100 µM in each case. In addition, the TGI in the experiment on SF-539 CNS and in the experiment on UO-31 renal was > 100 µM in each case.

Turning to `O=C1c2cccc3cc([N+](=O)[O-])cc(c23)C(=O)N1CCCN1CCN(CCCN2C(=O)c3cccc4cc([N+](=O)[O-])cc(c34)C2=O)CC1`, the TGI was 3.87 µM in the experiment with A498 renal; 54.3 µM in the experiment on HCC-2998 colon; > 100 µM in the experiment with HCT-15 colon; 4.81 µM in the experiment with OVCAR-3 ovarian; > 100 µM in the experiment on OVCAR-5 ovarian; 12 µM in the experiment with SF-539 CNS. Also, the TGI in the experiment with SK-OV-3 ovarian stood at 46.8 µM; in the experiment on UO-31 renal it was 1.01 µM.

Consider `COC(=O)/C(=N/NC(C)(C)C)C(C(=O)C=C(C)C)C(=O)C(=O)Nc1ccc(Cl)cc1C` (stereo unspecified), for which the TGI in the experiment with A498 renal, in the experiment on HCC-2998 colon, in the experiment on HCT-15 colon, in the experiment with KM12 colon, in the experiment on OVCAR-3 ovarian and with OVCAR-5 ovarian was > 100 µM in each case. Further, the TGI in the experiment with SF-539 CNS, in the experiment with SK-OV-3 ovarian and with UO-31 renal was > 100 µM each time.

As to `O=C(N=Nc1c(O)[nH]c2ccccc12)c1ccccc1O`, the TGI in the experiment on A498 renal is 94.6 µM; in the experiment with HCC-2998 colon, > 100 µM; in the experiment with HCT-15 colon, > 100 µM; with KM12 colon, > 100 µM; in the experiment with OVCAR-3 ovarian, > 100 µM; in the experiment on OVCAR-5 ovarian it was > 100 µM. For the same molecule, the TGI with SF-539 CNS was > 100 µM; in the experiment with SK-OV-3 ovarian it was 46.6 µM; in the experiment on UO-31 renal, 79.9 µM.

For the molecule `c1c[nH]c(Cc2ncc(Cc3cnc[nH]3)[nH]2)n1`, the TGI with A498 renal is 86 µM; with HCC-2998 colon, > 100 µM; in the experiment on HCT-15 colon, > 100 µM; with KM12 colon it was > 100 µM; with OVCAR-3 ovarian, > 100 µM; with OVCAR-5 ovarian, 59.6 µM. The TGI in the experiment with SF-539 CNS was > 100 µM; in the experiment on SK-OV-3 ovarian it was 86.2 µM.

Consider `[Cl][Sn]([c]1ccccc1)[c]1ccccc1`, for which the GI50 in the experiment on HCC-2998 colon was 14.1 µM; with HCT-15 colon, 4.48 µM; with KM12 colon it was 12.4 µM; in the experiment with OVCAR-3 ovarian, 11.4 µM; in the experiment with OVCAR-5 ovarian it was 13.6 µM; in the experiment with SF-539 CNS it was 9.43 µM. In addition, the figures for the GI50 in the experiment on SK-OV-3 ovarian and with UO-31 renal were 18.4 µM and 17.2 µM, respectively. For the same molecule, the TGI is 27.8 µM in the experiment on HCC-2998 colon; 18 µM with HCT-15 colon; 18 µM in the experiment on KM12 colon; 24.1 µM in the experiment with OVCAR-3 ovarian; 27.3 µM in the experiment on OVCAR-5 ovarian; 22.6 µM in the experiment with SF-539 CNS. In addition, the TGI in the experiment with SK-OV-3 ovarian is 32.7 µM; in the experiment on UO-31 renal it was 30.9 µM.

As to `NC(N)=N/N=C/c1c(-c2cc(Cl)sc2Cl)nc2n1CCS2`, the GI50 was 8.9 µM in the experiment on A498 renal; 5.11 µM with HCC-2998 colon; 9 µM with HCT-15 colon; 8.33 µM in the experiment on KM12 colon; 8.81 µM with OVCAR-3 ovarian; 7.87 µM with OVCAR-5 ovarian. For the same molecule, the figures for the GI50 in the experiment on SF-539 CNS and in the experiment with UO-31 renal were 7.43 µM and 17.3 µM, respectively. Also, the TGI with A498 renal was 16.6 µM; with HCC-2998 colon it was 12.6 µM; with HCT-15 colon, 16.6 µM; in the experiment on KM12 colon, 16.1 µM; in the experiment with OVCAR-3 ovarian it was 17.3 µM; in the experiment on OVCAR-5 ovarian it was 14.7 µM. Also, the TGI with SF-539 CNS was 15.2 µM; with UO-31 renal it was > 50 µM.

`CC(C)(C)N=CN1CCC(C(c2ccccc2)c2ccccc2)CC1`: the TGI in the experiment on A498 renal, with HCT-15 colon, in the experiment on KM12 colon, in the experiment on OVCAR-3 ovarian, in the experiment on OVCAR-5 ovarian and in the experiment with SF-539 CNS was > 100 µM throughout.

For the molecule `Cn1nnnc1[N-]Cc1ccccc1.[Au+].c1ccc([PH+](c2ccccc2)c2ccccc2)cc1`, the GI50 is 8.55 µM with HCC-2998 colon; 2.53 µM in the experiment on HCT-15 colon; 11.1 µM in the experiment with KM12 colon; 2.47 µM in the experiment with OVCAR-3 ovarian; 14.8 µM in the experiment on OVCAR-5 ovarian; 8.93 µM in the experiment with SF-539 CNS. The GI50 in the experiment with SK-OV-3 ovarian was 16.6 µM; with UO-31 renal, 13 µM. The TGI in the experiment with HCC-2998 colon came to 21.8 µM; in the experiment on HCT-15 colon it was 9.18 µM; in the experiment with KM12 colon, 38 µM; in the experiment on OVCAR-3 ovarian, 5.2 µM; with OVCAR-5 ovarian, 28.4 µM; in the experiment with SF-539 CNS, 23.2 µM. Also, the TGI in the experiment on SK-OV-3 ovarian is 30.3 µM; in the experiment on UO-31 renal, 25.7 µM.

On to `CC1=C2N3C[C@@H](n4c(=O)n(C)c(=O)n43)C23CCC1n1c(=O)n(C)c(=O)n13`, for which the TGI with A498 renal is > 100 µM; with HCC-2998 colon, > 100 µM; in the experiment on HCT-15 colon, 52.8 µM; in the experiment with KM12 colon it was > 100 µM; in the experiment on OVCAR-5 ovarian, > 100 µM; in the experiment with SF-539 CNS, > 100 µM. Also, the TGI in the experiment with UO-31 renal was > 100 µM.

As for `COc1ccc(/C=[N+](\[O-])[C@H](COCc2ccccc2)c2ccccc2)cc1`, the TGI in the experiment with A498 renal, with HCC-2998 colon, in the experiment with KM12 colon, with OVCAR-3 ovarian, in the experiment on OVCAR-5 ovarian and in the experiment on SF-539 CNS was > 100 µM throughout. Besides, the TGI in the experiment on SK-OV-3 ovarian and in the experiment with UO-31 renal was > 100 µM throughout.

For `COc1ccc2c(C3(O)CCNCC3)c[nH]c2c1`, the TGI in the experiment on HCC-2998 colon, with HCT-15 colon, with KM12 colon, in the experiment on OVCAR-3 ovarian, with OVCAR-5 ovarian and with SF-539 CNS was > 100 µM throughout. Also, the TGI with SK-OV-3 ovarian and in the experiment on UO-31 renal was > 100 µM throughout.

`CCCc1ccc(N=Cc2cc(OC)c(OC)c(OC)c2)cc1`: the TGI in the experiment with A498 renal was > 100 µM; with HCT-15 colon, > 54.6 µM; with KM12 colon it was > 100 µM; in the experiment on OVCAR-3 ovarian, > 100 µM; in the experiment with OVCAR-5 ovarian, > 100 µM; in the experiment with SF-539 CNS it was > 100 µM. In addition, the TGI in the experiment on SK-OV-3 ovarian and in the experiment on UO-31 renal was > 100 µM each time.

Take `COC(=O)c1ccc(OCc2ccc3oc(=O)c(-c4ccccc4)nc3c2)cc1`: the TGI in the experiment with HCC-2998 colon, in the experiment on HCT-15 colon, in the experiment with KM12 colon, with OVCAR-3 ovarian, with OVCAR-5 ovarian and in the experiment with SF-539 CNS was > 100 µM in each case. Moreover, the TGI in the experiment on UO-31 renal was > 100 µM.

Consider `O=C(c1ccco1)N(C(=S)N1CCN(c2ccccc2)CC1)c1ccccc1`, for which the TGI with HCT-15 colon, with KM12 colon, in the experiment on OVCAR-3 ovarian, in the experiment on OVCAR-5 ovarian, with SF-539 CNS and in the experiment with SK-OV-3 ovarian was > 100 µM each time. The TGI in the experiment on UO-31 renal was > 100 µM.

Take `CCOC(=O)C(=O)Nc1c(C)cccc1CC`: the TGI in the experiment on HCC-2998 colon, in the experiment on KM12 colon, with OVCAR-3 ovarian, in the experiment with OVCAR-5 ovarian, in the experiment on SF-539 CNS and with SK-OV-3 ovarian was > 100 µM each time. In the experiment with UO-31 renal, the TGI is > 100 µM.

Regarding `CC1(C)OC2C(=O)OC(COCc3ccccc3)C2O1` (stereo unspecified), the TGI in the experiment on A498 renal, in the experiment with HCC-2998 colon, in the experiment on HCT-15 colon, in the experiment on KM12 colon, with OVCAR-3 ovarian and in the experiment with OVCAR-5 ovarian was > 100 µM in each case. The TGI in the experiment with SF-539 CNS and with UO-31 renal was > 100 µM each time.

Consider `COc1cccc2c1C1=CC(=O)CCC1C(C)(C)O2` (stereo unspecified), for which the TGI with A498 renal, in the experiment on HCT-15 colon, in the experiment with KM12 colon, with OVCAR-3 ovarian, with OVCAR-5 ovarian and with SF-539 CNS was > 100 µM in each case. Besides, the TGI in the experiment with SK-OV-3 ovarian and in the experiment with UO-31 renal was > 100 µM throughout.

For `Cc1cc2occ(C)c(=O)c2c2c1OC(C)(C)S2`, the TGI in the experiment on HCC-2998 colon, in the experiment on HCT-15 colon, in the experiment with KM12 colon, in the experiment with OVCAR-3 ovarian, with OVCAR-5 ovarian and in the experiment with SF-539 CNS was > 100 µM throughout. Further, the TGI with SK-OV-3 ovarian and in the experiment with UO-31 renal was > 100 µM in each case.

In the case of `CC(=O)O/C(C)=C\C(=O)O/N=C(\N)c1ccc(C)cc1`, the TGI is > 100 µM in the experiment on A498 renal; > 100 µM in the experiment on HCC-2998 colon; > 100 µM in the experiment with KM12 colon; > 100 µM with OVCAR-3 ovarian; > 100 µM in the experiment on OVCAR-5 ovarian; 57.4 µM in the experiment on SF-539 CNS. Moreover, the TGI in the experiment with SK-OV-3 ovarian and in the experiment with UO-31 renal was > 100 µM throughout.

These data come from PubChem BioAssay (NCI).
